Source: US9446047B2, “Substituted 2,3-dihydro-1H-inden-1-one retinoic acid-related orphan nuclear receptor antagonists for treating multiple sclerosis” (Arrien Pharmaceuticals LLC, priority 2013, dated 2016)

Tests used:
RORγt = target: T1, RORγt (Homo sapiens, UniProt P51449); experiment: RORγt-activated IL-17A Prom/LUCPorter HEK 293 cells luciferase reporter assay; type: cell-based; settings: IL-17A Prom/LUCPorter HEK 293 cells transfected with RORγt, 16 h; read-out: RORγt Cell Specific
T1 construct: host or cells: IL-17A Prom/LUCPorter HEK 293 cell line (IMGENEX, IML-301)
T1 sequence (P51449 1-497 isoform P51449-2): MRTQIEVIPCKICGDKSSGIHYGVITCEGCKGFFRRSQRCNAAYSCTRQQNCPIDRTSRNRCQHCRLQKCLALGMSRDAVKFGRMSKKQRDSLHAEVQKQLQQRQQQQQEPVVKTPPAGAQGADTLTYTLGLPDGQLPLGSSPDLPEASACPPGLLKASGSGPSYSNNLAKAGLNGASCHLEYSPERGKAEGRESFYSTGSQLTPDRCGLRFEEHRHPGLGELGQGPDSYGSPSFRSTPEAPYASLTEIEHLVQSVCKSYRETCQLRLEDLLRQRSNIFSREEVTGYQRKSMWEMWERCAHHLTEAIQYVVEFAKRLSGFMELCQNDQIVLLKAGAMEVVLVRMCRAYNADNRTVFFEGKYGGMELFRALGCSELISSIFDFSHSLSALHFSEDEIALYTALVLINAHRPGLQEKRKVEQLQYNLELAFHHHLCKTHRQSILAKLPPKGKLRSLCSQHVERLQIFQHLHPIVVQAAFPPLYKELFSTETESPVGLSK
Experimental: Antagonistic (or inverse agonistic) effects of the test compounds on the RORγt-activated IL-17A Prom/LUCPorter™ HEK 293 cells were analyzed and IC50 of each compound was evaluated. […] Luciferase activity was analyzed using the luciferase reporter assay reagent (IMGENEX, LS100). The data were analyzed using Excel and Prism software. Percent activity was defined as 100×(1−(Well−Control A)/(Control B−Control A)), where Control A was the wells containing cells transfected with RORγt and Control B was the wells containing non-transfected cells. Both Controls A and B were treated with vehicle alone.

[1] = test system: IL-17 release from CD4+ T cells; experiment: Cytokine IL-17 estimation by HTRF, IL-17 release from CD4+ T cells; type: cell-based; settings: Homo sapiens, IL-17 release from CD4+ T cells, HTRF, read-out: IL-17 Inhibition
Source text: The assay was designed to assess the potency of test compounds on IL-17 cytokine release from CD4+ T cells. In order to aid in the identification of potent inhibitors, the IC50's determined for the test compounds IL-17 release from CD4+ T cells through the generation of 10 point Dose Response Curves (DRC). Assay methods used to quantify IL-17 secretion is HTRF (Homogenous Time Resolved Fluorescence). IL-17 secreted is detected by anti-IL-17 MAb labeled with XL665, the second MAb labeled with Cryptate, which binds to specific epitopes of human IL-17. Upon close proximity of both acceptor and donor energy transfer (FRET) occurs. This technique has been further enhanced by using long-lived labels combined with the detection on a time-resolved fluorescence basis, allowing […] of prompt fluorescence interferences.
The assay was performed according to manufacturer's instruction. All the reagents were reconstituted according to instructions provided. The reagents were dispensed into a half area 96-well plate in the following order: […] or sample, IL-17 MAbXL665 and 5 μL IL-17 Cryptate. For the negative control, the standard or sample is replaced by […]. The plate is covered with a plate sealer and incubated at rt for 2 h. Following incubation, the plate sealer is removed and the plate is read using HTRF protocol on Envision Microplate reader. All of the data analysis was carried out using Microsoft Excel (2010) and IC50 was determined using GraphPad Prism 4 software. % Inhibition of the test compounds were determined utilizing the following formula: % Inhibition=100−(100*(Average Test Compound Counts−Average Negative Control Counts)/(Average Positive Control Counts−Average Negative Control Counts)).
We have established robust in vitro cell-based HTRF assay for the activation and stimulation of CD4+ T lymphocytes to T helper 17 (Th17) cell differentiation and IL-17 production.

RORγ-LBD (RORγt) = target: T2, RORγ-LBD (RORγt) (Homo sapiens, UniProt P51449); experiment: TR-FRET RORγt Binding Assay; settings: 6-His(GST)RORγ-LBD, SRC1_2 peptide, read-out: RORγt Binding
T2 construct: the 6-His-(GST) RORγ-LBD was used which expressed and purified from baculovirus infected Sf-21 insect cells; made in house; host or cells: baculovirus-infected Sf-21 insect cells
T2 sequence (P51449 269-508 limits assumed): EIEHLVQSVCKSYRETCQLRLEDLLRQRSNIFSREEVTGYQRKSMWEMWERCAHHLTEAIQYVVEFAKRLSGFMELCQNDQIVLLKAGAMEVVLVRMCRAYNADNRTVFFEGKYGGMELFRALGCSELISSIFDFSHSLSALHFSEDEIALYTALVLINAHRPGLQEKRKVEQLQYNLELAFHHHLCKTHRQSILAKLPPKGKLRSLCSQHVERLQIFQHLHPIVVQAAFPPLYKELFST
Experimental: TR-FRET RORγt Binding Assay: RORγ-LBD contains a 6-His and GST tag peptide from SRC1-2 an aminoterminal biotinyl-[…] was employed and the 6-His-(GST) RORγ-LBD was used which expressed and purified from baculovirus infected Sf-21 insect cells from Invitrogen and purified using glutathione sepharose. […] The peptide binding due to dose-curves of compounds was added the 0.1% DMSO. Fluorescence at wavelength 340 nm was read in each well of […] using an Envision fluorescence reader in Time Resolved mode after overnight incubation at 4° C.

| Compound | IC50 (RORγt) | IC50 [1] | IC50 (RORγ-LBD (RORγt)) |
| --- | --- | --- | --- |
| COc1cc2c(cc1N1CCOCC1)CC(Cc1cc(C(F)(F)F)ccc1NC(=O)C(C)(C)C)C2=O (stereo not drawn) [compound 65, N-(2-((6-methoxy-5-morpholino-1-oxo-2,3-dihydro-1H-inden-2-yl)methyl)-4-(trifluoromethyl)phenyl)pivalamide] | > 1000 nM | > 1000 nM | > 10000 nM |
| COc1cc2c(cc1N1CCOCC1)CC(Cc1cc(C(F)(F)F)cc(C(O)(C(F)(F)F)C(F)(F)F)c1)C2=O (stereo not drawn) [compound 229, 2-(3-(1,1,1,3,3,3-hexafluoro-2-hydroxypropan-2-yl)-5-(trifluoromethyl)benzyl)-6-methoxy-5-morpholino-2,3-dihydro-1H-inden-1-one] | < 500 nM | < 500 nM | < 500 nM |
| COc1cc2c(cc1N1CCC(F)CC1)CC(Cc1ccc(SC(F)(F)F)cc1)C2=O (stereo not drawn) [compound 149, 5-(4-fluoropiperidin-1-yl)-6-methoxy-2-(4-((trifluoromethyl)thio)benzyl)-2,3-dihydro-1H-inden-1-one] | > 10000 nM | > 1000 nM | < 500 nM |
| COc1cc2c(cc1NC1CCN(C)CC1)CC(Cc1ncccc1C(F)(F)F)C2=O (stereo not drawn) [compound 146] | > 1000 nM | < 500 nM | > 1000 nM |
| COc1cc2c(cc1N1CCOCC1)CC(Cc1c(Cl)cccc1C(F)(F)F)C2=O (stereo not drawn) [compound 59, 2-(2-chloro-6-(trifluoromethyl)benzyl)-6-methoxy-5-morpholino-2,3-dihydro-1H-inden-1-one] | > 10000 nM | > 1000 nM | > 1000 nM |
| COc1cc2c(cc1O)C(=O)C(Cc1ncccc1C(F)(F)F)C2 (stereo not drawn) [compound 190] | > 1000 nM | < 500 nM | < 500 nM |
| COc1cc2c(cc1N1CCN(C)C(C)C1)CC(Cc1ccc(Cl)cc1F)C2=O (stereo not drawn) [compound 20, 2-(4-chloro-2-fluorobenzyl)-5-(3,4-dimethylpiperazin-1-yl)-6-methoxy-2,3-dihydro-1H-inden-1-one] | > 10000 nM | > 1000 nM | > 1000 nM |
| COc1ccc2c(c1)CC(Cc1ccc(SC(F)(F)F)cc1)C2=O (stereo not drawn) [compound 182] | > 1000 nM | < 500 nM | > 1000 nM |
| COc1cc2c(cc1N1CCOCC1)CC(Cc1ccc(F)cc1F)C2=O (stereo not drawn) [compound 28, 2-(2,4-difluorobenzyl)-6-methoxy-5-morpholino-2,3-dihydro-1H-inden-1-one] | > 10000 nM | > 1000 nM | > 1000 nM |
| COc1cc2c(cc1N1CCOCC1)CC(Cc1c(F)ccc(C(O)(C(F)(F)F)C(F)(F)F)c1F)C2=O (stereo not drawn) [compound 232, 2-(2,6-difluoro-3-(1,1,1,3,3,3-hexafluoro-2-hydroxypropan-2-yl)benzyl)-6-methoxy-5-morpholino-2,3-dihydro-1H-inden-1-one] | < 500 nM | < 500 nM | < 500 nM |
| COc1cc2c(cc1NC1CCN(C)CC1)CC(Cc1ccc(SC(F)(F)F)cc1)C2=O (stereo not drawn) [compound 144] | > 1000 nM | > 1000 nM | > 1000 nM |
| COc1cc2c(cc1N1CCOCC1)CC(Cc1cc(Br)cc(OC(F)(F)F)c1)C2=O (stereo not drawn) [compound 32, 2-(3-bromo-5-(trifluoromethoxy)benzyl)-6-methoxy-5-morpholino-2,3-dihydro-1H-inden-1-one] | < 500 nM | > 1000 nM | < 500 nM |
| COc1cc2c(cc1N1CCOCC1)CC(Cc1cc(C(F)(F)F)ccc1F)C2=O (stereo not drawn) [compound 77, 2-(2-fluoro-5-(trifluoromethyl)benzyl)-6-methoxy-5-morpholino-2,3-dihydro-1H-inden-1-one] | > 1000 nM | > 1000 nM | > 1000 nM |
| COc1cc2c(cc1N1CCOCC1)CC(Cc1ncccc1C(F)(F)F)C2=O (stereo not drawn) [compound 68, 6-methoxy-5-morpholino-2-((3-(trifluoromethyl)pyridin-2-yl)methyl)-2,3-dihydro-1H-inden-1-one] | < 500 nM | < 500 nM | < 500 nM |
| COc1cc2c(cc1N1CCOCC1)CC(Cc1cncc(C(O)(C(F)(F)F)C(F)(F)F)c1)C2=O (stereo not drawn) [compound 245] | < 500 nM | > 1000 nM | > 1000 nM |
